Laboratory results from a melting point compilation (Tetko et al.; mined from patent text by program, amines drawn as free bases though some values may be those of a salt).

| melting point [°C] | Structure (SMILES) |
| --- | --- |
| 108 to 109 | Cc1cccc2c1C(=O)C([N+](=O)[O-])C2=O (configuration not stated) |
| 78 | COc1ccc(C(=O)Nc2ccc3ccc(OC(C)C)nc3n2)cc1 |
| 144 | CCOC(=O)C1=COc2cc(C(C)(C)C)c(OC(C)=O)cc2O1 |
| 108 to 109 | CC(C)(C)OC(=O)NCCNC(=O)c1cccc(Br)n1 |
| 100 to 102 | CCOC(=O)CCc1ccc2c(c1)CC(NC(=O)OC(C)(C)C)CC2 (configuration not stated) |
| 82 to 83 | CCOC(=O)C1Cc2[nH]c3ccc(OC)cc3c2C1 (configuration not stated) |
| 234 to 236 | CC(C)Nc1nc(N)nc(-c2ccccc2)c1-c1ccc(=O)n(C(C)C)n1 |
| 84 to 86 | CC(C)Cc1ccc(C(C)C(N)=O)cc1 (configuration not stated) |
| 150 to 152 | O=C(c1cccnc1)n1nc(-c2ccc(Br)cc2)cc1C(F)(F)F |
| 152 to 153 | Cc1oc2ccc(-n3nnc4cccnc43)cc2c1C |
| 222 to 224 | Cc1[nH]c(-c2ccccc2)nc1-c1ccc(Cl)cc1Cl |
| 260 to 261 | CNc1nc(C)c(C(=O)c2ccc(N)c([N+](=O)[O-])c2)s1 |
| 190 to 193 | COc1ccc(S(=O)(=O)Nc2cc(Cl)ccc2/C=C/c2ccncc2)cc1 |
| 254 to 256 | Oc1ccc(-c2nc3cc(Cl)c(O)cc3o2)cc1 |
| 125 to 138 | CCCCN(CC(=O)O)S(=O)(=O)c1ccc(N2CCC(NC[C@H](O)c3ccc(O)c(NS(C)(=O)=O)c3)CC2)cc1 |
| 143 to 145 | CC#CCOc1ccc(S(=O)(=O)N(C)C(CCCSc2ccc(Cl)cc2)(NC)C(=O)O)cc1 (configuration not stated) |
| 89 to 90 | CC[C@H](C)[C@H](OCc1ccccc1)[C@@H]1[C@H]([N+](=O)[O-])[C@H](c2ccccc2)N[C@]1(C)C(=O)NCC(=O)O |
| 245 to 247 | Cc1nc(N)nc(N)c1-c1cccc(Cl)c1Cl |
| 155 to 156 | CCNC(=S)c1ccc2c(c1)Nc1ccccc1S2 |
| 144 | O=c1c2ccccc2oc2cc(OCC(O)CCl)cc(O)c12 (configuration not stated) |

| melting point [°C] | Structure (SMILES) |
| --- | --- |
| 222 to 223 | Cc1oc2cc(O)cc(O)c2c(=O)c1-c1ccc(F)cc1 |
| 178 to 181 | CCOC(=O)c1ccc(SC)cc1C(=O)OCC |
| 75 to 76 | COC(=O)CC(C(=O)OC)C(=O)c1ccccc1OC (configuration not stated) |
| 128 to 130 | CCNC(=O)c1c([Si](C)(C)C)ccc(I)c1Cl |
| 124 | COc1ccc(CC(=O)NCCc2cccc3c2OCO3)cc1OC |
| 91 to 93 | O=C(O)c1cccc([N+](=O)[O-])c1SCCO |
| 246 to 247 | O=c1cc(-c2ccc(O)cc2)oc2ccc(CO)cc12 |
| 106 | NS(=O)(=O)c1cc(CCNC(=O)C=Cc2cccs2)ccc1OCC1CCCCO1 (configuration not stated) |
| 179 to 180 | CC1(C)C(=O)C(C)(C)c2cc(N)c(N)cc21 |
| 284 to 286 | CC(=O)Oc1cccc(-c2cc(-c3ccncc3)c(C#N)c(=O)[nH]2)c1 |
| 73 to 75 | Cc1ncoc1C(C)(O)c1ccco1 (configuration not stated) |
| 120 to 123 | COc1ccc2ncc(N)c(Nc3ccccc3Cl)c2c1 |
| 119 to 120 | CC1(C)CC(=O)c2cc(C#N)ccc2O1 |
| 212 to 214 | CN1CCN(c2cc3c(Cl)cccc3c(=O)[nH]2)CC1CO (configuration not stated) |
| 71 to 73 | COC(=O)c1cc(C)cc(C=O)c1 |
| 161 to 163 | CCN(CC)CCN1C(=O)Nc2ccc([N+](=O)[O-])cc2C1c1ccccc1 (configuration not stated) |
| 121 to 122 | Cc1ccc(-c2nc3ccccc3o2)cc1F |
| > 260 | O=C(O)c1cnc2cccc(O)c2c1 |
| 156 to 157 | COc1ccc(-c2cc(COS(C)(=O)=O)c(=O)n(Cc3ccc(Cl)cc3)n2)cc1F |
| 127 to 130 | COCCSc1ccccc1S(N)(=O)=O |

| melting point [°C] | Structure (SMILES) |
| --- | --- |
| 267 to 272 | CN1CCN(C(=O)Nc2ccc3c(c2)NC(=O)/C3=C\c2ccc[nH]2)C1=O |
| 112 to 114 | O=C(O)[C@H]1C[C@H](NCc2ccccc2)c2c(Cl)cc(Cl)cc2N1 (relative stereo) |
| 96 to 98 | CCOC(=O)/C=C/c1cc(O)ccc1Br |
| 65 to 66 | CCOC(=O)C(C)NC(=O)c1cc(C)on1 (configuration not stated) |
| 274 to 276 | Cc1cc(C)c(-n2c(C)cc(C)c(C#N)c2=O)cc1NS(=O)(=O)C(F)(F)F |
| 168 to 174 | CC(C)(C)OC(=O)N1CCn2c(Br)c(-c3cccc(F)c3)c(C(N)=O)c2C1 |
| 175 | CC(=O)OCc1cc(=O)c(Oc2ccc(F)cc2F)c(-c2ccc(S(C)(=O)=O)cc2)o1 |
| 134 to 135 | O=c1oc(-c2ccc(F)cc2)cc2ccccc12 |
| 129 | C#CCOc1cccc(C)c1S(N)(=O)=O |
| 218 | Cc1ccc2nc3ccc(=O)c(Cl)c-3sc2c1 |
| 171 to 174 | CC1(C)Oc2ccc(C#N)cc2C(OC(=O)C2CCCN2S(=O)(=O)c2cccc([N+](=O)[O-])c2)C1Br (configuration not stated) |
| 152 to 153 | CC(C)C(O)c1cccc(S(N)(=O)=O)c1 (configuration not stated) |
| 226 to 228 | CC(C)NC(=O)c1cccc(I)c1C(=O)Nc1cc(C(F)(F)F)nn1-c1ccccc1Cl |
| 244 to 245 | CCCc1[nH]c2cc(C(=O)O)ccc2c1C(=O)C1CCC1 |
| 210 to 213 | O=C(/C=C/c1ccc(Sc2ccccc2[N+](=O)[O-])c(Cl)c1Cl)N1CCOCC1 |
| 150 to 152 | CC(CCN(C)c1ccccc1)NCC(O)c1ccc(O)c(C(N)=O)c1 (configuration not stated) |
| 168 to 169 | Cc1cc(CCC(=O)OC(C)(C)C)nc(-c2nc(=O)c3ccccc3s2)c1 |
| 227 to 228 | Cc1cc2c(-c3ccccc3)c(CCNC(=O)OCc3ccccc3)n(C)c(=O)c2cc1C |
| 135 | CS(=O)c1nc2ccc(C(F)(F)F)cc2[nH]1 (configuration not stated) |
| 79 to 81 | CCSC1=NCC(=O)N1c1ccccc1 |

Further lines, the compound ahead of its results:

| Structure (SMILES) | melting point [°C] |
| --- | --- |
| CN(C)CC1CCc2cc(NC(=O)c3ccc(-c4ccc(CO)cc4)cc3)ccc2C1 (configuration not stated) | 138 to 139 |
| CC1CCCN1CCCN1CCN(CCCN2CCCC2C)C1=C(C#N)C#N (configuration not stated) | 89 to 93 |
| O=C1CCC2(CCC(=O)c3cc([N+](=O)[O-])ccc32)C(=O)N1 (configuration not stated) | 273 to 275 |
| CCn1nc(-c2c(-c3ccc(F)cc3)nn3ccc(OC)cc23)ccc1=O | 179 to 180 |
| CCOC(=O)c1c(N=Cc2ccc(-c3cccs3)s2)sc(N=Cc2ccc(-c3cccs3)s2)c1C(=O)OCC | 130 to 132 |
| Cc1oc(-c2ccccc2)nc1CCc1nc(COc2ccccc2CC(=O)O)co1 | 109 to 110 |
| C=CCNCCC(OC)(c1ccccc1)c1ccccc1 | 40 to 50 |
| Cn1cc(-c2cc(-c3cnc4[nH]ccc4c3)ccn2)n(-c2ccc(N3CCNCC3)c(C(F)(F)F)c2)c1=O | 163 |
| COCC1CN(c2ccc(C3CCN(C(=O)C=Cc4ccccc4)CC3)cc2)C(=O)O1 (racemic) | 136 to 138 |
| CCOC(=O)c1ccc(OCCCCCCCCCCCCCCOc2ccc(Cl)cc2)cc1 | 72.5 to 73.5 |
| Cc1[nH]c2ccccc2c1C(=O)NC1CCN(Cc2ccccc2)CC1 | 150 to 153 |
| CCOC(=O)C1CCN(C(N)=S)CC1 | 97 to 98 |
| O=C1Nc2ccc(Oc3ccccc3)cc2SC(c2ccc3c(c2)OCO3)C1O (configuration not stated) | 228 to 230 |
| CCCCc1oc2ccccc2c1C(=O)Nc1ccc2cc(OCc3nn[nH]n3)ccc2c1 | 194 to 198 |
| CC(=O)Oc1cc(Br)cc2c1OC(C)(C)C2 | 76 |
| CCOC=C(C(=O)O)C(=O)C1CC1 | 108 to 113 |
| O=C(CCN1CCN(c2ccccc2)CC1)c1ccc2oc3ccc(C(=O)CCN4CCN(c5ccccc5)CC4)cc3c(=O)c2c1 | 199 to 201 |
| CCOC(=O)c1c(N2CCN(C(=O)c3cccs3)CC2)c2cnccc2n(CC(=O)c2ccccc2)c1=O | 157 |
| CCCCOCCCOCCCCCCNCC(O)c1cc(Cl)c(N)c(Cl)c1 (configuration not stated) | 49 to 51 |
| Cc1nc(COc2ccc3nc(N)c4nc5n(c4c3c2)C(C)COC5)cs1 (configuration not stated) | 105 to 107 |
| COc1cc(OC)cc(N2CCN(C(=O)Nc3cc(-c4cccnc4)nc4ccccc34)CC2)c1 | 95 to 96 |

| Structure (SMILES) | melting point [°C] |
| --- | --- |
| Cc1cc(CNC(=O)c2sc(-n3cnn(Cc4ccc(F)cc4)c3=O)nc2C)[nH]n1 | 234 to 235 |
| CCCCCCCCCCCCCCCCCCC(NC(C)=O)(C(=O)OCC)C(=O)OCC | 70 to 71 |
| CCOC(=O)CCCCCCC1NC(=O)NC1=O (configuration not stated) | 110 |
| CCN1CCN(Cc2ccc(C(=O)Nc3ccc(C)c(Nc4nccc(-c5cccnc5)n4)c3)cc2)CC1 | 210 |
| CCCCON=C(C(=O)OCC)c1csc(N)n1 | 126 to 128 |
| O=S(=O)(O)CCN1CCOCC1 | 68 to 78 |
| CNc1nc(Cl)nc2c1ncn2C1SC(CO)C(O)C1O (configuration not stated) | 220 to 222 |
| N#Cc1ccc(-c2ccc(OCCCCCCO)cc2)cc1 | 87 to 89 |
| Cn1nc2nc(C(C)(C)C)[nH]c(=O)c2c1N(S(C)(=O)=O)S(C)(=O)=O | 258 to 259 |
| CCCCN1CCC(O)(c2cccn2Cc2ccccc2F)CC1 | 132 to 135 |
| CC1Sc2c(C(=O)O)c(=O)c3cc(F)c(N4CCOCC4)cc3n21 (configuration not stated) | 192 to 198 |
| COc1cc(Nc2nccc(NC3CCN(Cc4ccccc4)CC3)n2)cc(OC)c1OC | 136 |
| CCCCCCN1C(=O)C(=CC(=O)O)SC1=Nc1ccc(Cl)c(Cl)c1 | 156 to 157 |
| CCC(CO)(CO)NC(=O)Nc1ccccc1CCc1cc(C(C)(C)C)c(O)c(C(C)(C)C)c1 | 145 to 146 |
| CCN(Cc1ccccc1)C(=O)Cn1c2cccc(OCc3ccccc3)c2c2c(COC)c(C(=O)OC(C)C)ncc21 | 142 to 144 |
| C#CC(O)c1ncn(C(c2ccccc2)(c2ccccc2)c2ccccc2)n1 (configuration not stated) | 138 to 139 |
| O=C1c2ccccc2C(O)(c2ccccc2)N1C1CCN(CCC(c2ccccc2)c2ccccc2)CC1 (configuration not stated) | 150 to 153 |
| CC(=NO)C(C)(C)NN(C)CCNC(C)(C)C(Cn1ccnc1[N+](=O)[O-])=NO | 132 to 134 |
| CC(C)(C)OC(=O)N1CCc2c(n(CCO)c3c(Cl)cc(Cl)cc23)CC1 | 183 to 184 |
| OCc1[nH]c(=S)n(C2CCc3ccccc3C2)c1CO (configuration not stated) | 199 to 200 |
| C#CCn1c(-c2cc(Cl)nc(Cl)c2)nc(O)c(OC)c1=O | 227 to 228 |
